These are literature values, as cited in patent US20140343076A1, “PHARMACEUTICAL COMPOSITIONS OF LURASIDONE” (Cadila Healthcare Limited, priority 2013, published 2014).

Where a name gives a salt, the structure may show the parent alone.

On to `O=C1[C@@H]2[C@H]3CC[C@H](C3)[C@@H]2C(=O)N1C[C@@H]1CCCC[C@H]1CN1CCN(c2nsc3ccccc23)CC1` [lurasidone, N-[4-[4-(1,2-benzisothiazol-3-yl)-1-piperazinyl]-(2R,3R)-2,3-tetramethylene-butyl]-(1′R,2′S,3′R,4′S)-2,3-bicyclo[2,2,1]heptanedicarboxyimide hydrochloride], for which the solubility in water entry was “less than several”.
